Common to all, as to assay type: biochemical, Pseudomonas sp. MV37
In assay [1] the test system is purified TPM. As to the kind of experiment: Specificity 2 to amino group donor: typical substrates of ω-amino acid transaminase (Example 11). The note with it: pyruvic acid 14 mM; for activity of TPM for the amino group donor: amino compound 14 mM, pH 7.5; for Relative activity (%): amino group donor 14 mM, pH 7.5, 30° C., 1 hour, (S)-1-phenethylamine = 100. The procedure: (§1) Specifically, first, a purified polypeptide is added to a substrate solution with the following composition so that the volume thereof is 400 μl. After 1 hour of reaction at 30° C., 20 μl of 3N hydrochloric acid is added to stop the reaction. Next, 80 μl of a 0.2 M aqueous sodium carbonate solution and 200 μl of an acetone solution of 3.3 mg/mL Dabsyl chloride are separately added to 20 μl of the thus obtained reaction solution, followed by 10 minutes of reaction at 70° C. Acetic acid (20 μl) is added to the reaction solution and then the solution is stirred. The reaction solution is analyzed by HPLC under the following conditions, and then the quantity of dabsylated alanine is determined. In addition, the concentration of a purified polypeptide to be used herein is adjusted so that the amount of alanine generated is 2.8 mM or less as determined by the determination method (hereinafter, referred to as activity assay B).
The purified TPM obtained in Example 7 was examined to determine its reactivity to typical substrates of ω-amino acid transaminase. First, 20 μL of a purified TPM solution was added to 380 μL of a substrate solution with the composition given below. After 1 hour of reaction at 30° C., 20 μL of 3 N hydrochloric acid was added to stop the reaction. Next, 80 μL of a 0.2 M aqueous sodium carbonate solution and 200 μL of an acetone solution of 3.3 mg/mL Dabsyl chloride were separately added to 20 μL of the thus obtained reaction solution, followed by 10 minutes of reaction at 70° C. 20 μL of acetic acid was added to the solution and then it was stirred. The reaction solution was analyzed by HPLC under the following conditions, and thus the quantity of dabsylated alanine was determined.
(§2) [High Performance Liquid Chromatography (HPLC) Analysis Conditions] • Column: Deverosil ODS-HG-3 (NOMURA CHEMICAL) • Eluent: acetonitrile/0.045 M acetate buffer (pH4.1)=35/65 (volume ratio) • Flow rate: 0.9 mL/minute • Detection: 254 nm

Assay [2] has as its system purified TPM. As to the kind of experiment: Specificity to amino group receptor (Example 12). The following applies: (S)-1-phenethylamine 25 mM, pH 7.0, 30° C., 5 minutes. The procedure: A substrate solution was added to the purified TPM solution, so that the final concentrations of the components would be as follows. After 5 minutes of reaction at 30° C., 6N hydrochloric acid was added in an amount of 50 μL per mL of the reaction solution, so as to stop the reaction. The reaction solution was analyzed by HPLC under the following conditions.
[High Performance Liquid Chromatography (HPLC) Analysis Conditions] • Column: Wakosil-II 5C18 RS (Wako Pure Chemical Industries, Ltd.) • Eluent: 10 mM potassium phosphate buffer (pH5.3): acetonitrile=3:2 • Flow rate: 1 mL/minute • Detection: 241 nm

The test system of assay [3] is purified TPM. Description: Specificity to amino group donor (dabsylated alanine quantification, Example 10). The following applies: pyruvic acid 14 mM, pH 7.5, 30° C., 1 hour; for Relative activity (%): amino group donor 14 mM (28 mM racemic body), n-butylamine = 100%. Here is the method:
as §1
The purified TPM obtained in Example 7 was examined to determine its specificity to amino group donors. First, 20 μL of a purified TPM solution was added to 380 μL of a substrate solution with the composition given below. After 1 hour of reaction at 30° C., 20 μL, of 3 N hydrochloric acid was added to stop the reaction. Next, 80 μl of an aqueous 0.2 M sodium carbonate solution and 200 μl of an acetone solution of 3.3 mg/mL Dabsyl chloride were added to 20 μL, of the thus obtained reaction solution, followed by 10 minutes of reaction at 70° C. 20 μL of acetic acid was added to the reaction solution. The reaction solution was stirred and then analyzed by HPLC under the following conditions, and thus the quantity of dabsylated alanine was determined.
as §2

Experimental findings from patent publication US9481870B2, “Nucleic acid encoding a polypeptide having aminotransferase activity, vectors and host cells comprising the nucleic acid” (KANEKA CORPORATION, priority 2010, dated 2016) are described below.

Regarding `NCCCCN` [Putrescine], in the assay with purified TPM [1], the “activity of TPM for the amino group donor” value (shortened to “activity of TPM”) was “does not exhibit activity” and the “Relative activity (%)” value was 0%.
Regarding `NCCCC(=O)O` [4-aminobutyric acid], in the assay with purified TPM [1], the “activity of TPM” value was “does not exhibit activity” and the “Relative activity (%)” value is recorded as 0%.
For the compound `NCCC(=O)O` [β-alanine], in the assay with purified TPM [1], the “activity of TPM” value is listed as “does not exhibit activity” and the “Relative activity (%)” value was found to be 0%.
Regarding `O=C(Cc1ccccc1)c1ccccc1` [Benzyl phenyl ketone], in the assay with purified TPM [2] (substrate concentration 2.5 mM), the “Relative activity (%)” value was 3.8%.
The same measure, in the same setting: then `O=C1CCN(Cc2ccccc2)C1` [1-benzyl-3-pyrrolidinone], with 4.7%.
On to `NCCCC[C@H](N)C(=O)O` [L-lysine], for which, in the assay on purified TPM [1], the “activity of TPM” value is recorded as “does not exhibit activity” and the “Relative activity (%)” value is 0%.
In the case of `NCc1ccccc1` [benzylamine], in the assay with purified TPM [3], the “Relative activity (%)” value stood at 95% and the “activity of TPM” value was “exhibits its activity”.
`C[C@H](N)c1ccccc1` [(S)-α-phenethylamine]: the “Relative activity (%)” value with purified TPM [1] is listed as 100%.
As to `CCCCCC(C)=O` [2-heptanone], in the assay on purified TPM [2] (substrate concentration 2.5 mM), the “Relative activity (%)” value is reported as 4.6%.
In the case of `CC(=O)C(=O)O` [Pyruvic acid], in the assay with purified TPM [2] (substrate concentration 25 mM), the “Relative activity (%)” value amounted to 100%.
As for `O=C1CCc2ccccc2C1` [2-tetralone], the “Relative activity (%)” value with purified TPM [2] (substrate concentration 2.5 mM) came out at 17%.
As to `CC(=O)c1cnccn1` [Acetylpyrazine], the “Relative activity (%)” value in the assay with purified TPM [2] (substrate concentration 2.5 mM) is given as 23%.
Turning to `O=C(O)CCC(=O)C(=O)O` [2-ketoglutaric acid], the “Relative activity (%)” value in the assay with purified TPM [2] (substrate concentration 25 mM) was found to be 0%.
On to `CC(=O)CCc1ccccc1` [Benzylacetone], for which, in the assay on purified TPM [2] (substrate concentration 2.5 mM), the “Relative activity (%)” value is on record as 12%.
On the same count and under the same terms, then `CC(=O)c1ccccn1` [2-acetylpyridine], with 16%.
As for `CCCCN` [n-butylamine], in the assay on purified TPM [3], the “Relative activity (%)” value is listed as 100% and the “activity of TPM” value is on record as “exhibits its activity”.
In the case of `CCOC(=O)CC(=O)c1ccccc1` [Benzoylacetic acid ethyl], the “Relative activity (%)” value in the assay on purified TPM [2] (substrate concentration 2.5 mM) was 13%.
On the same count and under the same terms, then `CCCC=O` [Butylaldehyde], with 7%.
`O=CC(=O)O` [Glyoxalic acid]: the “Relative activity (%)” value in the assay with purified TPM [2] (substrate concentration 25 mM) is recorded as 40%.
For `NCCS(=O)(=O)O` [Taurine], in the assay with purified TPM [1], the “activity of TPM” value is listed as “does not exhibit activity” and the “Relative activity (%)” value was 0%.
For `CCC(C)N` (racemic) [±2-butylamine], in the assay with purified TPM [3], the “Relative activity (%)” value turned out to be 67% and the “activity of TPM” value was “exhibits its activity”.
